Measurements as given in publication PMC5469811, “Identification of GXXXXG motif in Chrysophsin-1 and its implication in the design of analogs with cell-selective antimicrobial and anti-endotoxin activities” (Scientific Reports, 2017).
Residues, ends and D or L forms follow the SMILES beside them.

Assays:
[1] = tested on: TNF-α in serum of BALB/c mice injected with E. coli ATCC 25922; test: In vivo TNF-α production after E. coli infection; details: BALB/c mice injected with mid-logarithmic phase E. coli ATCC 25922; two hours post infection; ELISA; versus untreated group
Protocol: Serum was isolated from the blood obtained by bleeding the mice retro-orbitally two hours post infection and ELISA was performed to determine the amount of TNF-α produced in the untreated group and the peptide-treated group.

[2] = tested on: LPS-induced TNF-α, IL-6 and IFN-γ in serum of BALB/c mice; test: In vivo inhibition of LPS mediated cytokine production; parameters: species or system mouse; details: LPS 10 mgKg−1 plus peptide 3 mgKg−1, 1, 2, 4, 6 h, ELISA, versus LPS only
Protocol: Enzyme-linked immunosorbent assays (ELISAs) were carried out to estimate the amount of tumor necrosis factor alpha (TNF-α) and interleukin-1β (IL-1β) secreted by LPS-treated THP-1 cells in the presence of peptides after 4–6 h of incubation. The levels of these cytokines in the culture supernatant of untreated and LPS-treated cells were taken as the negative and positive respectively, to calculate the percent inhibition by the peptides. For RANTES estimation the peptide LPS incubation was kept up to 24 h. The experiments were repeated twice reported as percentage inhibition. The absorbance of LPS treated cell supernatant was taken as zero inhibition. Similar ELISAs were performed to estimate the amount of TNF-α IL-6 and IFN-γ secreted by BALB/c mouse blood, which was collected from the orbital sinus at different time points post LPS injection, by using enzyme-linked immunosorbent assay kits for mouse TNF-α (BD Biosciences), IL-6 (BD Biosciences) and IFN-γ (BD Biosciences).
All the mice were divided into three experimental groups. Except the control group which was injected with PBS only, the other two groups were challenged with E. coli O111: B4 LPS at 10 mgkg^−1 of body weight in the presence and in the absence of 3 mgkg^−1 peptide. Blood was collected 1, 2, 4 and 6 h post LPS and peptide injection by the retro-orbital bleeding of mice. […]

SMILES: CC[C@H](C)[C@H](NC(=O)[C@H](C)NC(=O)[C@H](CCCCN)NC(=O)[C@@H]1CCCN1C(=O)[C@H](C)NC(=O)[C@H](Cc1c[nH]cn1)NC(=O)[C@@H](NC(=O)[C@H](C)NC(=O)CNC(=O)[C@H](CCCCN)NC(=O)[C@@H](NC(=O)[C@H](CC(C)C)NC(=O)[C@H](Cc1c[nH]c2ccccc12)NC(=O)CNC(=O)[C@H](Cc1ccccc1)NC(=O)[C@@H](N)Cc1ccccc1)[C@@H](C)CC)[C@@H](C)CC)C(=O)N[C@@H](Cc1c[nH]cn1)C(=O)NCC(=O)N[C@@H](CC(C)C)C(=O)N[C@H](C(=O)N[C@@H](Cc1c[nH]cn1)C(=O)N[C@@H](CCCNC(=N)N)C(=O)N[C@@H](CCCNC(=N)N)C(=O)N[C@@H](CCCNC(=N)N)C(=O)N[C@@H](Cc1c[nH]cn1)C(N)=O)[C@@H](C)CC [Peptide G13P-Chr-1] (H-FFGWLIKGAIHAPKAIHGLIHRRRH-NH2)
- TNF-α production in serum [1]: significant reduction
- LPS-induced production of TNF-α, IL-6 and IFN-γ in serum [2]: significant reduction
